In ChEMBL document CHEMBL5030565, “Stapled Peptides Targeting SARS-CoV-2 Spike Protein HR1 Inhibit the Fusion of Virus to Its Cell Receptor” (J Med Chem, 2021):

Tests used:
[1] = tested on: SARS-CoV-2; assay: Antiviral activity against pseudotyped SARS-CoV-2 infected in Huh7 cells expressing hACE2 at 10 uM preincubated for 1 hr followed by cell infection measured after 2 days by bright-Glo luciferase assay; format: functional, Severe acute respiratory syndrome coronavirus 2, Huh-7; settings: time 49 hrs
[2] = tested on: SARS-CoV-2; assay: Antiviral activity against SARS-CoV-2 infected in Vero E6 cells assessed as reduction in viral replication at 12.5 uM preincubated for 30 mins followed by viral infection measured after 72 hrs by crystal violet staining based plaque assay; format: functional, Severe acute respiratory syndrome coronavirus 2; parameters: scale not given: the % may be the effect or the level left

SMILES | Activity [1] | Activity [2]
CC[C@H](C)[C@H](NC(=O)CNC(=O)[C@H](CO)NC(=O)[C@@H](NC(=O)[C@H](CC(=O)O)NC(C)=O)[C@@H](C)CC)C(=O)N[C@@H](CC(N)=O)C(=O)N[C@@H](C)C(=O)N[C@@H](CO)C(=O)N[C@H](C(=O)N[C@H](C(=O)N[C@@H](CC(N)=O)C(=O)N[C@H](C(=O)N[C@@H](CCC(N)=O)C(=O)N[C@@H](CCCCN)C(=O)N[C@@H](CCC(=O)O)C(=O)N[C@H](C(=O)N[C@@]1(C)CCC/C=C\CCC[C@@](C)(C(=O)N[C@H](C(=O)N[C@@H](C)C(=O)N[C@@H](CCCCN)C(=O)N[C@@H](CC(N)=O)C(=O)N[C@@H](CC(C)C)C(=O)N[C@@H](CC(N)=O)C(=O)N[C@@H](CCC(=O)O)C(=O)N[C@@H](CO)C(=O)N[C@@H](CC(C)C)C(=O)N[C@H](C(=O)N[C@@H](CC(=O)O)C(=O)N[C@@H](CC(C)C)C(=O)N[C@@H](CCC(N)=O)C(=O)N[C@@H](CCC(=O)O)C(=O)N[C@@H](CC(C)C)C(N)=O)[C@@H](C)CC)C(C)C)NC(=O)[C@H](CC(N)=O)NC(=O)[C@H](CC(C)C)NC(=O)[C@H](CCCNC(=N)N)NC1=O)[C@@H](C)CC)[C@@H](C)CC)C(C)C)C(C)C | 27.8% | 35%
CC[C@H](C)[C@H](NC(=O)CNC(=O)[C@H](CO)NC(=O)[C@@H](NC(=O)[C@H](CC(=O)O)NC(C)=O)[C@@H](C)CC)C(=O)N[C@@H](CC(N)=O)C(=O)N[C@@H](C)C(=O)N[C@@H](CO)C(=O)N[C@H](C(=O)N[C@H](C(=O)N[C@@H](CC(N)=O)C(=O)N[C@H](C(=O)N[C@@H](CCC(N)=O)C(=O)N[C@@H](CCCCN)C(=O)N[C@@H](CCC(=O)O)C(=O)N[C@H](C(=O)N[C@@H](CC(=O)O)C(=O)N[C@@]1(C)CCC/C=C\CCC[C@@](C)(C(=O)N[C@@H](C)C(=O)N[C@@H](CCCCN)C(=O)N[C@@H](CC(N)=O)C(=O)N[C@@H](CC(C)C)C(=O)N[C@@H](CC(N)=O)C(=O)N[C@@H](CCC(=O)O)C(=O)N[C@@H](CO)C(=O)N[C@@H](CC(C)C)C(=O)N[C@H](C(=O)N[C@@H](CC(=O)O)C(=O)N[C@@H](CC(C)C)C(=O)N[C@@H](CCC(N)=O)C(=O)N[C@@H](CCC(=O)O)C(=O)N[C@@H](CC(C)C)C(N)=O)[C@@H](C)CC)NC(=O)[C@H](CCC(=O)O)NC(=O)[C@H](CC(N)=O)NC(=O)[C@H](CC(C)C)NC1=O)[C@@H](C)CC)[C@@H](C)CC)C(C)C)C(C)C | 36.8% | 41%
CC[C@H](C)[C@H](NC(=O)CNC(=O)[C@H](CO)NC(=O)[C@@H](NC(=O)[C@H](CC(=O)O)NC(C)=O)[C@@H](C)CC)C(=O)N[C@@H](CC(N)=O)C(=O)N[C@@H](C)C(=O)N[C@@H](CO)C(=O)N[C@H](C(=O)N[C@H](C(=O)N[C@@H](CC(N)=O)C(=O)N[C@H](C(=O)N[C@@H](CCC(N)=O)C(=O)N[C@@H](CCCCN)C(=O)N[C@@]1(C)CCC/C=C\CCC[C@@](C)(C(=O)N[C@@H](CC(N)=O)C(=O)N[C@@H](CCC(=O)O)C(=O)N[C@H](C(=O)N[C@@H](C)C(=O)N[C@@H](CCCCN)C(=O)N[C@@H](CC(N)=O)C(=O)N[C@@H](CC(C)C)C(=O)N[C@@H](CC(N)=O)C(=O)N[C@@H](CCC(=O)O)C(=O)N[C@@H](CO)C(=O)N[C@@H](CC(C)C)C(=O)N[C@H](C(=O)N[C@@H](CC(=O)O)C(=O)N[C@@H](CC(C)C)C(=O)N[C@@H](CCC(N)=O)C(=O)N[C@@H](CCC(=O)O)C(=O)N[C@@H](CC(C)C)C(N)=O)[C@@H](C)CC)C(C)C)NC(=O)[C@H](CCCNC(=N)N)NC(=O)[C@H](CC(=O)O)NC(=O)[C@H]([C@@H](C)CC)NC1=O)[C@@H](C)CC)C(C)C)C(C)C | 39.8% | 32%
CC[C@H](C)[C@H](NC(=O)CNC(=O)[C@H](CO)NC(=O)[C@@H](NC(=O)[C@H](CC(=O)O)NC(C)=O)[C@@H](C)CC)C(=O)N[C@@H](CC(N)=O)C(=O)N[C@@H](C)C(=O)N[C@@H](CO)C(=O)N[C@H](C(=O)N[C@H](C(=O)N[C@@H](CC(N)=O)C(=O)N[C@H](C(=O)N[C@@H](CCC(N)=O)C(=O)N[C@@H](CCCCN)C(=O)N[C@@H](CCC(=O)O)C(=O)N[C@H](C(=O)N[C@@H](CC(=O)O)C(=O)N[C@@H](CCCNC(=N)N)C(=O)N[C@@]1(C)CCC/C=C\CCC[C@@](C)(C(=O)N[C@@H](CCCCN)C(=O)N[C@@H](CC(N)=O)C(=O)N[C@@H](CC(C)C)C(=O)N[C@@H](CC(N)=O)C(=O)N[C@@H](CCC(=O)O)C(=O)N[C@@H](CO)C(=O)N[C@@H](CC(C)C)C(=O)N[C@H](C(=O)N[C@@H](CC(=O)O)C(=O)N[C@@H](CC(C)C)C(=O)N[C@@H](CCC(N)=O)C(=O)N[C@@H](CCC(=O)O)C(=O)N[C@@H](CC(C)C)C(N)=O)[C@@H](C)CC)NC(=O)[C@H](C(C)C)NC(=O)[C@H](CCC(=O)O)NC(=O)[C@H](CC(N)=O)NC1=O)[C@@H](C)CC)[C@@H](C)CC)C(C)C)C(C)C | 25.1% | 33.5%
CC[C@H](C)[C@H](NC(=O)CNC(=O)[C@H](CO)NC(=O)[C@@H](NC(=O)[C@H](CC(=O)O)NC(C)=O)[C@@H](C)CC)C(=O)N[C@@H](CC(N)=O)C(=O)N[C@@H](C)C(=O)N[C@@H](CO)C(=O)N[C@H](C(=O)N[C@H](C(=O)N[C@@H](CC(N)=O)C(=O)N[C@H](C(=O)N[C@@H](CCC(N)=O)C(=O)N[C@@]1(C)CCC/N=C\CCC[C@@](C)(C(=O)N[C@@H](CC(C)C)C(=O)N[C@@H](CC(N)=O)C(=O)N[C@@H](CCC(=O)O)C(=O)N[C@H](C(=O)N[C@@H](C)C(=O)N[C@@H](CCCCN)C(=O)N[C@@H](CC(N)=O)C(=O)N[C@@H](CC(C)C)C(=O)N[C@@H](CC(N)=O)C(=O)N[C@@H](CCC(=O)O)C(=O)N[C@@H](CO)C(=O)N[C@@H](CC(C)C)C(=O)N[C@H](C(=O)N[C@@H](CC(=O)O)C(=O)N[C@@H](CC(C)C)C(=O)N[C@@H](CCC(N)=O)C(=O)N[C@@H](CCC(=O)O)C(=O)N[C@@H](CC(C)C)C(N)=O)[C@@H](C)CC)C(C)C)NC(=O)[C@H](CC(=O)O)NC(=O)[C@H]([C@@H](C)CC)NC(=O)[C@H](CCC(=O)O)NC1=O)[C@@H](C)CC)C(C)C)C(C)C | 16.1% | 28.5%
CC[C@H](C)[C@H](NC(=O)CNC(=O)[C@H](CO)NC(=O)[C@@H](NC(=O)[C@H](CC(=O)O)NC(C)=O)[C@@H](C)CC)C(=O)N[C@@H](CC(N)=O)C(=O)N[C@@H](C)C(=O)N[C@@H](CO)C(=O)N[C@H](C(=O)N[C@H](C(=O)N[C@@H](CC(N)=O)C(=O)N[C@H](C(=O)N[C@@]1(C)CCC/C=C\CCC[C@@](C)(C(=O)N[C@@H](CCCNC(=N)N)C(=O)N[C@@H](CC(C)C)C(=O)N[C@@H](CC(N)=O)C(=O)N[C@@H](CCC(=O)O)C(=O)N[C@H](C(=O)N[C@@H](C)C(=O)N[C@@H](CCCCN)C(=O)N[C@@H](CC(N)=O)C(=O)N[C@@H](CC(C)C)C(=O)N[C@@H](CC(N)=O)C(=O)N[C@@H](CCC(=O)O)C(=O)N[C@@H](CO)C(=O)N[C@@H](CC(C)C)C(=O)N[C@H](C(=O)N[C@@H](CC(=O)O)C(=O)N[C@@H](CC(C)C)C(=O)N[C@@H](CCC(N)=O)C(=O)N[C@@H](CCC(=O)O)C(=O)N[C@@H](CC(C)C)C(N)=O)[C@@H](C)CC)C(C)C)NC(=O)[C@H]([C@@H](C)CC)NC(=O)[C@H](CCC(=O)O)NC(=O)[C@H](CCCCN)NC1=O)[C@@H](C)CC)C(C)C)C(C)C | 47.6% | 35%
